The source of these data is US20150164910A1, “ANTIVIRAL COMPOUNDS AND METHODS OF USE” (The Regents of the University of Califonia, priority 2012, published 2015).

Test [1] has as its system eGFP-expressing recombinant CVB3. The test is classed as cell-based, coxsackievirus B3. Conditions: for % of eGFP + cells, 0 Hr: compound added 0 hr post infection at its peak activity concentration, DMSO 26.0; for % of eGFP + cells, 0 Hr / % of eGFP + cells, 1 Hr / % of eGFP + cells, 2 Hr: read 6 hr post infection; for % of eGFP + cells, 1 Hr: compound added 1 hr post infection at its peak activity concentration, DMSO 23.7; for % of eGFP + cells, 2 Hr: compound added 2 hr post infection at its peak activity concentration, DMSO 24.8; for Inhibition of infected cells: eGFP-CVB3 m.o.i=1, compound added at time of infection, 6 hr post infection, 1-(% eGFP+ cells with compound/% with DMSO only).

Test [2] relates to CVB3-H3. The test can be described thus: Plaque reduction assay, CVB3-H3 in HeLa-RW cells. The test is classed as cell-based, coxsackievirus B3. Conditions: compound added 30 min before infection, CVB3-H3 MOI 1, HeLa-RW, 6 hours; log10(titer with DMSO only/titer with inhibitor). (In general: In a plaque reduction assay, fewer plaques than in the control indicate reduced infectivity or spread.)

Test [3] has as its system coxsackievirus B3 (CVB3). The test is described as follows: Cell viability assay, prevention of cell death caused by CVB3 infection. The test is classed as cell-based. To be noted: for Selectivity index: 50% Cytotoxic concentration/50% activity concentration; for IC50 / EC (peak activity): Enterovirus B; for IC50: read-out: 50% activity concentration (IC50); for EC (peak activity): HeLa-RW cells and CVB3 at low multiplicity of infection, read-out: Peak Activity Conc. How it is done: Procedure: Enteroviruses rapidly cause cell death, and a cell viability assay was used to examine the cytotoxicity of each compound and to identify the concentration needed to prevent cell death caused by coxsackievirus B3 (CVB3) infection.
Compounds were diluted two-fold and added to wells of 384 well plate. HeLa-RW cells were then added (cytotoxicity testing), or cells and CVB3 were added to provide a low multiplicity of infection to determine concentration of peak activity or 50% maximal concentration. Selectivity index is defined as the 50% Cytotoxic concentration/50% activity concentration

Test [4] relates to viral capsid proteins of CVB3. The test can be described thus: Immunoblot detection of CVB3 viral capsid protein. Conditions: six hours after infection with CVB3; compound added 30 minutes before inoculation; 10 μM fluoxetine in FIG. 2. The test is classed as cell-based, coxsackievirus B3. Background: Immunoblotting shows a protein as a band on a membrane.

`Cl.OC(c1cc(C(F)(F)F)nc2c(C(F)(F)F)cccc12)C1CCCCN1` (stereo not shown) [Compound 22, [2,8-Bis (trifluoromethyl)-4-quinolinyl](2-piperidinyl)methanol hydrochloride (1:1), reference compound]: in test [1], the “% of eGFP + cells, 0 Hr” value was 21.1%; the “% of eGFP + cells, 1 Hr” value is 18.5%; the “% of eGFP + cells, 2 Hr” value stood at 27.9%; the “Inhibition of infected cells” value worked out at 100%. The “Log10 reduction of virus titer” value in test [2] is on record as 4.0. Moreover, in test [3], the Selectivity index is listed as 6, the IC50 was determined as 1600 nM and the EC (peak activity) was 3.13 µM.

On to `CN1c2ccccc2C(=O)NC1c1cc2ccccc2nc1N1CCOCC1` (stereo not shown) [Compound 23, 1-Methyl-2-[2-(4-morpholinyl)-3-quinolinyl]-2,3-dihydro-4(1H)-quinazolinone], for which, in test [1], the “% of eGFP + cells, 0 Hr” value is given as 0.1%; the “% of eGFP + cells, 1 Hr” value was 3.8%; the “% of eGFP + cells, 2 Hr” value turned out to be 0.0%; the “Inhibition of infected cells” value was 100%. Also, the “Log10 reduction of virus titer” value in test [2] came to 4.4. Moreover, in test [3], the Selectivity index was 54, the IC50 was 920 nM and the EC (peak activity) came out at 3.13 µM.

As to `N#Cc1ccc(OCc2nc3ccccc3n2-c2ccccc2)cc1` [Compound 42, 4-[(1-Phenyl-1H-benzimidazol-2-yl)methoxy) benzonitrile], in test [1], the “% of eGFP + cells, 0 Hr” value came out at 0.0%; the “% of eGFP + cells, 1 Hr” value was determined as 0.1%; the “% of eGFP + cells, 2 Hr” value stood at 0.0%; the “Inhibition of infected cells” value is 100%. Moreover, the “Log10 reduction of virus titer” value in test [2] stood at 4.5. Besides, in test [3], the Selectivity index is reported as 8, the IC50 turned out to be 3000 nM and the EC (peak activity) was 6.25 µM.

In the case of `NCCC(Oc1ccc(C(F)(F)F)cc1)c1ccccc1` (stereo not shown) [Compound 74, 3-Phenyl-3-[4-(trifluoromethyl)phenoxy]-1-propanamine], in test [1], the “% of eGFP + cells, 0 Hr” value amounted to 0.0%; the “% of eGFP + cells, 1 Hr” value was determined as 0.0%; the “% of eGFP + cells, 2 Hr” value was determined as 0.0%; the “Inhibition of infected cells” value is listed as 100%. In test [4], the “viral capsid protein detected by immunoblot” value is on record as “no viral protein is detected”. Also, the “Log10 reduction of virus titer” value in test [2] is 4.7. In test [3], the Selectivity index is given as 10, the IC50 is 2530 nM and the EC (peak activity) stood at 6.25 µM.

As for `C/C(=C\c1ccccc1)C1NC(N)=Nc2nc3ccccc3n21` (stereo not shown) [Compound 68, 4-[(1E)-1-Phenyl-1-propen-2-yl)-1,4-dihydro[1,3,5] triazino[1,2-a]benzimidazol-2-amine], in test [1], the “% of eGFP + cells, 0 Hr” value turned out to be 0.0%; the “% of eGFP + cells, 1 Hr” value stood at 0.0%; the “% of eGFP + cells, 2 Hr” value is given as 0.0%; the “Inhibition of infected cells” value came out at 100%. For the same molecule, the “Log10 reduction of virus titer” value in test [2] is 3.7. Moreover, in test [3], the Selectivity index stood at 21, the IC50 worked out at 1210 nM and the EC (peak activity) came to 3.13 µM.

As to `Cc1ccc(-c2cc(C(=O)NN)c3ccccc3n2)s1` [Compound 25, 2-(5-Methyl-2-thienyl)-4-quinoline-carbohydrazide], in test [1], the “% of eGFP + cells, 0 Hr” value amounted to 0.1%; the “% of eGFP + cells, 1 Hr” value was 0.1%; the “% of eGFP + cells, 2 Hr” value is 0.0%; the “Inhibition of infected cells” value is listed as 100%. The “Log10 reduction of virus titer” value in test [2] turned out to be 3.7. Further, in test [3], the Selectivity index worked out at 32, the IC50 was determined as 780 nM and the EC (peak activity) stood at 3.13 µM.

As to `CC(C)n1ncc2c(C(=O)Nc3ccc4c(c3)OCO4)cc(-c3ccccc3)nc21` [Compound 21, N-(1,3-Benzodioxol-5-yl)-1-isopropyl-6-phenyl-1H-pyrazolo [3,4-b]pyridine-4-carboxamide], in test [1], the “% of eGFP + cells, 0 Hr” value is recorded as 0.0%; the “% of eGFP + cells, 1 Hr” value stood at 0.0%; the “% of eGFP + cells, 2 Hr” value was determined as 0.0%; the “Inhibition of infected cells” value came to 100%. The “Log10 reduction of virus titer” value in test [2] is given as 4.5. In addition, in test [3], the Selectivity index is recorded as 21, the IC50 amounted to 1190 nM and the EC (peak activity) is 3.13 µM.

Turning to `Cc1ccccc1NC(=O)c1cc(-c2cccs2)nc2c1cnn2C(C)C` [Compound 1, 1-Isopropyl-N-(2-methylphenyl)-6-(2-thienyl)-1H-pyrazolo [3,4-b]pyridine-4-carboxamide], in test [1], the “% of eGFP + cells, 0 Hr” value amounted to 0.0%; the “% of eGFP + cells, 1 Hr” value is 0.0%; the “% of eGFP + cells, 2 Hr” value turned out to be 0.0%; the “Inhibition of infected cells” value is 100%. Further, the “Log10 reduction of virus titer” value in test [2] is listed as 4.4. In addition, in test [3], the Selectivity index was found to be 42, the IC50 is 600 nM and the EC (peak activity) was 1.56 µM.

Consider `O=C(Nc1nc(CN2CCCC2)cs1)c1cc(-c2cccs2)nc2ccccc12` [Compound 33, N-[4-(1-Pyrrolidinylmethyl)-1,3-thiazol-2-yl)-2-(2-thienyl)-4-quinoline-carboxamide], for which, in test [1], the “% of eGFP + cells, 0 Hr” value was 0.0%; the “% of eGFP + cells, 1 Hr” value worked out at 0.0%; the “% of eGFP + cells, 2 Hr” value was determined as 0.0%; the “Inhibition of infected cells” value amounted to 100%. Moreover, in test [2], the “Log10 reduction of virus titer” value was determined as 4.5. For the same molecule, in test [3], the Selectivity index was 44, the IC50 is 570 nM and the EC (peak activity) was found to be 3.13 µM.

For `CC(C)c1cc(C(=O)Nc2cccc(N3CCCC3=O)c2)c2cnn(C(C)C)c2n1` [Compound 18, 1,6-Diisopropyl-N-[3-(2-oxo-1-pyrrolidinyl)phenyl]-1H-pyrazolo[3,4-b]pyridine-4-carboxamide], in test [1], the “Inhibition of infected cells” value was 97.9%. For the same molecule, in test [2], the “Log10 reduction of virus titer” value came out at 4.0.

For `CCN(CC)CCNC1CCCc2c1[nH]c1ccc(C)cc21.Cl` (stereo not shown) [Compound 66, N,N-Diethyl-2-[(6-methyl-2,3,4,9-tetrahydro-1H-carbazol-1-yl)amino] ethanaminium chloride], the “Inhibition of infected cells” value in test [1] was 99.6%. The “Log10 reduction of virus titer” value in test [2] was 4.4.

As for `Cc1ccc2nc(N3CCN(Cc4nnnn4Cc4ccccc4)CC3)c(C#N)cc2c1` [Compound 36, 2-{4-[(1-Benzyl-1H-tetrazol-5-yl)methyl]-1-piperazinyl}-6-methyl-3-quinoline-carbonitnle], the “Inhibition of infected cells” value in test [1] worked out at 79.7%. In addition, the “Log10 reduction of virus titer” value in test [2] is 1.0.

Regarding `Cc1ccc(F)cc1NC(=O)c1cc(-c2cccs2)nc2c1cnn2C(C)C` [Compound 2, N-(5-Fluoro-2-methylphenyl)-1-isopropyl-6-(2-thienyl)-1H-pyrazolo[3,4-b] pyridine-4-carboxamide], the “Inhibition of infected cells” value in test [1] is on record as 99.6%. Also, the “Log10 reduction of virus titer” value in test [2] is given as 4.4.

In the case of `CCn1ncc2c(C(=O)Nc3ccc(C#N)cc3)cc(-c3cccs3)nc21` [Compound 20, N-(4-Cyanophenyl)-1-ethyl-6-(2-thienyl)-1H-pyrazolo [3,4-b]pyridine-4-carboxamide], the “Inhibition of infected cells” value in test [1] came to 99.6%. For the same molecule, the “Log10 reduction of virus titer” value in test [2] came out at 1.9.

As to `NC(=O)C1CCN(CC(=O)N2N=C3/C(=C/c4cccs4)CCCC3C2c2cccs2)CC1` (stereo not shown) [Compound 63, 1-{2-Oxo-2-[(7E)-3-(2-thienyl)-7-(2-thienylmethylene)-3,3a,4,5,6,7-hexahydro-2H-indazol-2-yl]ethyl}-4-piperidine-carboxamide], in test [1], the “Inhibition of infected cells” value turned out to be 100%. In addition, the “Log10 reduction of virus titer” value in test [2] is reported as 4.2.

`O=C(c1ccc2c(c1)OCCO2)C1CCN(C(=O)c2ccc(-n3cccn3)cc2)CC1` [Compound 46, 2,3-Dihydro-1,4-benzodioxin-6-yl {1-[4-(1H-pyrazol-1-yl)benzoyl]-4-piperidinyl}methanone]: the “Inhibition of infected cells” value in test [1] is given as 82.6%. Also, in test [2], the “Log10 reduction of virus titer” value was 1.3.

Take `COc1ccc(N(Cc2ccc(F)cc2)C(=O)c2ccco2)cc1` [Compound 57, N-(4-Fluorobenzyl)-N-(4-methoxyphenyl)-2-furamide]: in test [1], the “% of eGFP + cells, 0 Hr” value came to 0.0%; the “% of eGFP + cells, 1 Hr” value amounted to 0.0%; the “% of eGFP + cells, 2 Hr” value is 0.0%; the “Inhibition of infected cells” value came to 99.7%. Moreover, the “Log10 reduction of virus titer” value in test [2] was 4.3. Besides, in test [3], the Selectivity index is 16, the IC50 came out at 3130 nM and the EC (peak activity) was 6.25 µM.

As for `CCCSc1nc2ccccc2c(=O)n1Cc1ccccc1` [Compound 47, 3-Benzyl-2-(propylsulfanyl)-4(3H)-quinazolinone], the “Inhibition of infected cells” value in test [1] amounted to 100%. Moreover, in test [2], the “Log10 reduction of virus titer” value turned out to be 4.1.
